The source of these data is PubChem BioAssay (NCI).

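Dose response: 5 concentrations. Exposure: 48 h. Format: 96-well plates. Endpoint: linear interpolation; highest concentration if not reached. GI50 is the concentration that inhibits growth by half. TGI denotes the concentration required for complete inhibition of growth.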

Among the test systems are COLO 205 colon; MOLT-4 leukemia; OVCAR-5 ovarian; RPMI-8226 leukemia; SK-OV-3 ovarian; SW-620 colon; UACC-62 melanoma; NCI-H23 lung; MDA-MB-231 breast.
Common to all, as to assay: NCI-60 cell line screen, 48 h

Take `COc1cc2ccnc3c2c(c1OC)-c1coc(SC)c1-3`: the TGI in the assay on COLO 205 colon, in the assay with MOLT-4 leukemia, with OVCAR-5 ovarian, with RPMI-8226 leukemia, with SK-OV-3 ovarian and in the assay on SW-620 colon was over 100 µM each time. For the same compound, the TGI in the assay on UACC-62 melanoma was over 100 µM.
For `CCCCCCCCCCCCCCCC(=O)OCC1OC(n2cc(F)c(=O)[nH]c2=O)C(N)C(O)C1O` (stereo unspecified), the TGI in the assay with COLO 205 colon stood at 34 µM; with MOLT-4 leukemia, 40.7 µM; in the assay on NCI-H23 lung, 39.3 µM; with OVCAR-5 ovarian, 58.8 µM; in the assay with RPMI-8226 leukemia, 51.3 µM; in the assay with SK-OV-3 ovarian it was 45.7 µM. For the same compound, the TGI with SW-620 colon came out at 30.4 µM; with UACC-62 melanoma it was 30 µM.
As to `COc1cc2c[n+](C)c3c4cc(OC)c(OC(C)C)cc4ccc3c2cc1OC`, the TGI is 31.2 µM in the assay on COLO 205 colon; over 100 µM with MOLT-4 leukemia; over 100 µM in the assay on NCI-H23 lung; over 100 µM with OVCAR-5 ovarian; over 100 µM in the assay with RPMI-8226 leukemia; over 100 µM in the assay on SK-OV-3 ovarian. Further, the TGI in the assay with SW-620 colon and in the assay on UACC-62 melanoma was over 100 µM in each case.
For `CCCCCCC[CH2][Sn]([CH2]CCCCCCC)([O]c1cccc2cccnc12)[O]c1cccc2cccnc12`, the GI50 is 1.86 µM with COLO 205 colon; 0.595 µM in the assay on MOLT-4 leukemia; 3.02 µM in the assay with OVCAR-5 ovarian; 0.625 µM with RPMI-8226 leukemia; 0.391 µM in the assay on SW-620 colon; 1.82 µM with UACC-62 melanoma. Further, the TGI in the assay with COLO 205 colon stood at 3.41 µM; in the assay on MOLT-4 leukemia, 3.81 µM; in the assay on OVCAR-5 ovarian, 8.21 µM; with RPMI-8226 leukemia it was 2.84 µM; in the assay on SW-620 colon it was 1.89 µM; in the assay with UACC-62 melanoma, 3.9 µM.
On to `CN(C(=O)C12C3C4C1C1C2C3C41C(N)=O)C(C)(C)C` (stereo unspecified), for which the TGI with COLO 205 colon, in the assay on MOLT-4 leukemia, in the assay with NCI-H23 lung, in the assay on OVCAR-5 ovarian, in the assay on SK-OV-3 ovarian and in the assay with SW-620 colon was over 100 µM in each case. The same compound yielded a TGI in the assay with UACC-62 melanoma of over 100 µM.
`CC1(C)C2CCC13C(=O)C1OC3(C2)C2C(=O)c3ccccc3C(=O)C12` (stereo unspecified): the GI50 with COLO 205 colon is over 100 µM; in the assay on MDA-MB-231 breast, 2.44 µM; in the assay with MOLT-4 leukemia, over 100 µM; with NCI-H23 lung, over 100 µM; in the assay on OVCAR-5 ovarian, over 100 µM; in the assay on SK-OV-3 ovarian, over 100 µM. For the same compound, the TGI in the assay with COLO 205 colon is over 100 µM; in the assay on MDA-MB-231 breast it was 7.98 µM; in the assay with MOLT-4 leukemia, over 100 µM; in the assay with NCI-H23 lung it was over 100 µM; in the assay on OVCAR-5 ovarian it was over 100 µM; in the assay on SK-OV-3 ovarian, over 100 µM.
On to `C[C@@H]1[C@H](C)N1CC(O)Cn1ccnc1[N+](=O)[O-]` (stereo partly specified), for which the TGI in the assay with COLO 205 colon, in the assay with MDA-MB-231 breast, in the assay with MOLT-4 leukemia, with NCI-H23 lung, in the assay on OVCAR-5 ovarian and with SK-OV-3 ovarian was over 100 µM throughout. Also, the TGI with SW-620 colon and in the assay with UACC-62 melanoma was over 100 µM each time.
`O=[N+]([O-])c1ccc(-n2nnc(C3=NCCN3)c2-c2ccccc2)cc1`: the TGI in the assay on COLO 205 colon, in the assay with MOLT-4 leukemia, with NCI-H23 lung, with OVCAR-5 ovarian, in the assay with RPMI-8226 leukemia and with SK-OV-3 ovarian was over 100 µM in each case. Also, the TGI in the assay with SW-620 colon and in the assay on UACC-62 melanoma was over 100 µM each time.
In the case of `C=C1CC2OC(=O)C(=C)C2C(O)C2C(=C)CCC12` (stereo unspecified), the TGI in the assay on COLO 205 colon was 12.9 µM; with MOLT-4 leukemia it was 11 µM; with NCI-H23 lung, 27 µM; in the assay with OVCAR-5 ovarian, 24.7 µM; with RPMI-8226 leukemia it was 14.3 µM; in the assay on SK-OV-3 ovarian, 24.9 µM. Besides, the figures for the TGI in the assay with SW-620 colon and with UACC-62 melanoma were 13.8 µM and 12.8 µM, respectively.
With `C=C(C(N)=O)c1ccc([N+](=O)[O-])o1`, the TGI with COLO 205 colon is 12.9 µM; in the assay on MDA-MB-231 breast, 29.8 µM; with MOLT-4 leukemia it was 18.8 µM; in the assay on NCI-H23 lung, 20.6 µM; with OVCAR-5 ovarian, 35.2 µM; with SK-OV-3 ovarian, 87.9 µM. Moreover, the TGI in the assay on SW-620 colon came to 32.3 µM; with UACC-62 melanoma it was 21.4 µM.
Regarding `N/N=C(/C(=O)Nc1cccc(Cl)c1)C(C(=O)c1ccc(O)cc1O)C1OC(=O)c2ccccc21` (stereo unspecified), the TGI in the assay with COLO 205 colon, with MOLT-4 leukemia, with NCI-H23 lung, with OVCAR-5 ovarian, in the assay with RPMI-8226 leukemia and with SK-OV-3 ovarian was over 100 µM in each case. For the same compound, the TGI with SW-620 colon and with UACC-62 melanoma was over 100 µM each time.
With `CC(=O)[CH-]C(=O)c1ccccc1.CC(=O)[CH-]C(=O)c1ccccc1.CC[O-].CC[O-].[Hf+4]`, the GI50 in the assay on COLO 205 colon, with MOLT-4 leukemia, in the assay with NCI-H23 lung, with OVCAR-5 ovarian, in the assay with RPMI-8226 leukemia and in the assay on SK-OV-3 ovarian was over 100 µM throughout. Besides, the GI50 in the assay with SW-620 colon and in the assay on UACC-62 melanoma was over 100 µM each time. Further, the TGI with COLO 205 colon, with MOLT-4 leukemia, with NCI-H23 lung, with OVCAR-5 ovarian, in the assay with RPMI-8226 leukemia and in the assay on SK-OV-3 ovarian was over 100 µM in each case. Besides, the TGI in the assay on SW-620 colon and in the assay with UACC-62 melanoma was over 100 µM each time.
For the compound `Cc1nc(Nc2ccccc2)sc1C(=O)CC(=O)C(=O)Nc1c(C(C)C)cccc1C(C)C`, the TGI in the assay on COLO 205 colon, with MOLT-4 leukemia, with NCI-H23 lung, in the assay with OVCAR-5 ovarian, in the assay with SK-OV-3 ovarian and in the assay with SW-620 colon was over 100 µM throughout. This compound displayed a TGI in the assay on UACC-62 melanoma of over 100 µM.
For `Cc1ccccc1C1OC(=O)c2ccc3ccccc3c21` (stereo unspecified), the TGI with COLO 205 colon was 2.28 µM; in the assay on MOLT-4 leukemia, 7.18 µM; in the assay on NCI-H23 lung, 20.7 µM; in the assay with OVCAR-5 ovarian, over 31.6 µM; with RPMI-8226 leukemia, 5.43 µM; in the assay on SK-OV-3 ovarian it was 8.37 µM. Also, the figures for the TGI in the assay with SW-620 colon and with UACC-62 melanoma were 21.7 µM and 6.97 µM, respectively.
In the case of `CCOC(=O)CC[C@H](NC(=O)c1nc[nH]c1[N+](=O)[O-])C(=O)OCC`, the TGI in the assay with COLO 205 colon, in the assay with MOLT-4 leukemia, with NCI-H23 lung, with RPMI-8226 leukemia, in the assay on SK-OV-3 ovarian and in the assay with UACC-62 melanoma was over 100 µM throughout.
